In series [1] the target is Cholinesterase (Equus caballus, UniProt P81908). Nature of the series: Inhibition of equine serum BuchE using butyrylthiocholine iodide as substrate preincubated for 10 mins followed by substrate addition and measured after 20 mins by DTNB based Ellman's method. In general terms: In Ellman's method for cholinesterases, released thiocholine reacts with DTNB.
The nature of series [2]: Antioxidant activity assessed as trolox equivalent of ORAC radical scavenging activity incubated for 15 mins by ORAC-fluorescein assay. The class given is functional.
The target in series [3] is T1, Acetylcholinesterase (Homo sapiens, UniProt P22303). In words: Inhibition of human AchE expressed in human HEK293 cells using acetylthiocholine as substrate preincubated for 10 mins followed by substrate addition and measured after 5 to 8 mins by DTNB based Ellman's spectrophotometric method. The class given is cell-based.
Series [4] addresses T2, Amine oxidase [flavin-containing] A (Homo sapiens, UniProt P21397).
T2 sequence (P21397 whole entry): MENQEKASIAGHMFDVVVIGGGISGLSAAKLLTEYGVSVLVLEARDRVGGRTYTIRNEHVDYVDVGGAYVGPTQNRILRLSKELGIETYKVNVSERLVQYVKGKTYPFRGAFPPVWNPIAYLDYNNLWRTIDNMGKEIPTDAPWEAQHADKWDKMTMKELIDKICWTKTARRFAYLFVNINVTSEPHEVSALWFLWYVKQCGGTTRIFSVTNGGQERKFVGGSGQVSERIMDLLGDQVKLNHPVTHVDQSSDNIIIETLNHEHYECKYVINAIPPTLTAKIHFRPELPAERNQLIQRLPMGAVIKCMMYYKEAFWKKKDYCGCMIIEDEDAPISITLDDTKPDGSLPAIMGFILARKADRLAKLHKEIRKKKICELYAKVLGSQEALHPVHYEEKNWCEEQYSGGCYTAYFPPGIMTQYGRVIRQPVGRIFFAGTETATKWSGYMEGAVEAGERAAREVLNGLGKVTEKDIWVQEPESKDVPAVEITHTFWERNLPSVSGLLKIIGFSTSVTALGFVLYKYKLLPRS
Nature of the series: Inhibition of human MAO-A using kynuramine as substrate preincubated for 5 mins followed by substrate addition and measured after 30 mins by spectroscopic analysis.

Series [5] has as its target T3, Amine oxidase [flavin-containing] B (Homo sapiens, UniProt P27338).
T3 sequence (P27338 whole entry): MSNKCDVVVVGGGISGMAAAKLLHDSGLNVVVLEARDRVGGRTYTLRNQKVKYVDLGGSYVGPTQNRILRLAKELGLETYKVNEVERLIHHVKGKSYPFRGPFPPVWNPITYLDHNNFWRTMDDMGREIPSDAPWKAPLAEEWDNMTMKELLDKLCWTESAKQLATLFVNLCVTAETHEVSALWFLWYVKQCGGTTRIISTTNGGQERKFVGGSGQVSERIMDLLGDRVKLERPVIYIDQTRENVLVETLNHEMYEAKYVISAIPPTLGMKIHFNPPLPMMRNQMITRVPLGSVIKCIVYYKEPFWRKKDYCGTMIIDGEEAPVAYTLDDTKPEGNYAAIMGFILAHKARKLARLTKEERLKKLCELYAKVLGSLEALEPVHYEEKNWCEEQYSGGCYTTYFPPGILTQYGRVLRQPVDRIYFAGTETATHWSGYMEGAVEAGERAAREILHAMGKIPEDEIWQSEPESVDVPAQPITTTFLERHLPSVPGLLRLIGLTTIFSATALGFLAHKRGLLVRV
Nature of the series: Inhibition of human MAO-B using kynuramine as substrate preincubated for 5 mins followed by substrate addition and measured after 30 mins by spectroscopic analysis.

Series [6] addresses T1, Acetylcholinesterase. In words: Inhibition of recombinant human AchE using acetylthiocholine iodide as substrate and measured upto 2 mins by Ellman's method.
In series [7] the target is Amyloid-beta precursor protein (Homo sapiens) (UniProt P05067). Nature of the series: Inhibition of Amyloid beta (1 to 42) (unknown origin) self aggregation and at 20 uM and measured upto 24 hrs by ThT-based fluorimetric assay.
For series [8], the target named is Acetylcholinesterase (Electrophorus electricus, UniProt O42275). In words: Inhibition of electric eel AChE using acetylthiocholine iodide as substrate preincubated for 5 mins followed by substrate addition and measured upto 7.5 mins by Ellman's method.
Series [9] concerns the target T3, Amine oxidase [flavin-containing] B. In words: Inhibition of human MAO-B assessed as recovery of enzyme activity by dialysis method. Details: scale not given: the % may be the effect or the level left.
Series [10] shares this target. Nature of the series: Inhibition of human MAO-B using tyramine as substrate preincubated for 10 mins followed by substrate addition and measured after 30 mins by fluorometric method.
Series [11] concerns the target T2, Amine oxidase [flavin-containing] A. In words: Inhibition of human MAO-A using tyramine as substrate preincubated for 10 mins followed by substrate addition and measured after 30 mins by fluorometric method.
The target of series [12] is T1, Acetylcholinesterase. Nature of the series: Inhibition of AchE (unknown origin) using acetylthiocholine iodide as substrate preincubated for 15 mins followed by substrate addition and measured upto 4 mins by Ellman's spectrophotometric method.
In series [13] the target is T1, Acetylcholinesterase. Nature of the series: Inhibition of recombinant human AChE using acetylthiocholine as substrate preincubated for 15 mins followed by substrate addition and measured after 5 mins by DTNB reagent based Ellman's method.
Series [14] has as its target T4, Polyunsaturated fatty acid 5-lipoxygenase (Homo sapiens, UniProt P09917).
T4 sequence (P09917 whole entry): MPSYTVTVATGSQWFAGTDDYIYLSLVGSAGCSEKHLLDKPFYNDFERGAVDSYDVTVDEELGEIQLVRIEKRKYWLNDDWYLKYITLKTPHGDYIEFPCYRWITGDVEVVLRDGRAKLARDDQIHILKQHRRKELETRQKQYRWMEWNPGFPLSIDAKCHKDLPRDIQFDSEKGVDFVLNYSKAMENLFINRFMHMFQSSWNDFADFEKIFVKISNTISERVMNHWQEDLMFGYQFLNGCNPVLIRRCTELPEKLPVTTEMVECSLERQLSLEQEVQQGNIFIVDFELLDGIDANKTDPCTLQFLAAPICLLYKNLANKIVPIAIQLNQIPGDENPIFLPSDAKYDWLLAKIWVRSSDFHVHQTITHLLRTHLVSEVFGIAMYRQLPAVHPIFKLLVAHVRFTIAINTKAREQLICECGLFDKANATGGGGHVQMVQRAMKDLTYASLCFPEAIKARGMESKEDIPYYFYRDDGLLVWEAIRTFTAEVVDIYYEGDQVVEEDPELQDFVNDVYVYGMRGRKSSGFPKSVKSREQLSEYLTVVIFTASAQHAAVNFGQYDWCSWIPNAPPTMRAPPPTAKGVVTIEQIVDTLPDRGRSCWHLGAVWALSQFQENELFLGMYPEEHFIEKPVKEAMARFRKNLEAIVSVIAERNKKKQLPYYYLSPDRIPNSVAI
Nature of the series: Inhibition of human LOX5 using arachidonic acid preincubated for 10 mins followed by substrate addition by microplate spectrophotometric analysis.

A short description of series [15]: Inhibition of soybean LOX15 using arachidonic acid preincubated for 5 mins followed by substrate addition and measured after 5 mins by microplate spectrophotometric analysis. Details: species or system Glycine max.
Series [16] has as its target Cholinesterase (Homo sapiens, UniProt P06276). In words: Inhibition of recombinant human BuChE using butyrylthiocholine as substrate preincubated for 15 mins followed by substrate addition and measured after 5 mins by Ellman's method.
Series [17] addresses T5, Polyunsaturated fatty acid lipoxygenase ALOX15 (Homo sapiens, UniProt P16050).
T5 sequence (P16050 whole entry): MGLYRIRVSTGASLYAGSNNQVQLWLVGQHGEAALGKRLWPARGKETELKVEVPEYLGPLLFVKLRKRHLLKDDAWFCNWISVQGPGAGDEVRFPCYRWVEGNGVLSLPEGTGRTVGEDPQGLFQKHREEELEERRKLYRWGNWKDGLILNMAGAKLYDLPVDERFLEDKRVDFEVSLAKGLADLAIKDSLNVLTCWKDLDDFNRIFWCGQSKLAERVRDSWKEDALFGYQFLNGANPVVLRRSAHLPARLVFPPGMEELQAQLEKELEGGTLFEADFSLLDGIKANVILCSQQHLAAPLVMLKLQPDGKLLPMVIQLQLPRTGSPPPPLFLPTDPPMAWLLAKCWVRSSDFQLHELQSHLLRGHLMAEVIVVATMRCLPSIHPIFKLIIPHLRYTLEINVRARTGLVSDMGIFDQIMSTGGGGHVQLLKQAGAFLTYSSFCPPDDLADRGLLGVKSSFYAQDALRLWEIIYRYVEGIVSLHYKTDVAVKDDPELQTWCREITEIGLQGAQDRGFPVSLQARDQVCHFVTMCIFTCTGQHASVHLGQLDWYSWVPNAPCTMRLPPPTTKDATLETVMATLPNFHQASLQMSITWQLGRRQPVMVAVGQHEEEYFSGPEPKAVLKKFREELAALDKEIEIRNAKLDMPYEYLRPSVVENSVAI
In words: Inhibition of LOX15 (unknown origin).

Series [18] is described as follows: Antioxidant activity assessed as DPPH radical scavenging activity. It is filed as functional.
Series [19] in a line: Antioxidant activity assessed as DPPH radical scavenging activity incubated for 45 mins by microplate spectrophotometric anlaysis. It is filed as functional. On the technique in general: The DPPH test is a chemical assay of radical scavenging.
The target of series [20] is T2, Amine oxidase [flavin-containing] A. Nature of the series: Inhibition of recombinant human MAO-A using tyramine as substrate preincubated for 30 mins followed by substrate addition and measured after 30 mins by amplex red reagent based fluorometric method.
The target in series [21] is T3, Amine oxidase [flavin-containing] B. In words: Inhibition of recombinant human MAO-B using tyramine as substrate preincubated for 30 mins followed by substrate addition and measured after 30 mins by amplex red reagent based fluorometric method.

Structures are written as SMILES.

T1 sequence (P22303 whole entry): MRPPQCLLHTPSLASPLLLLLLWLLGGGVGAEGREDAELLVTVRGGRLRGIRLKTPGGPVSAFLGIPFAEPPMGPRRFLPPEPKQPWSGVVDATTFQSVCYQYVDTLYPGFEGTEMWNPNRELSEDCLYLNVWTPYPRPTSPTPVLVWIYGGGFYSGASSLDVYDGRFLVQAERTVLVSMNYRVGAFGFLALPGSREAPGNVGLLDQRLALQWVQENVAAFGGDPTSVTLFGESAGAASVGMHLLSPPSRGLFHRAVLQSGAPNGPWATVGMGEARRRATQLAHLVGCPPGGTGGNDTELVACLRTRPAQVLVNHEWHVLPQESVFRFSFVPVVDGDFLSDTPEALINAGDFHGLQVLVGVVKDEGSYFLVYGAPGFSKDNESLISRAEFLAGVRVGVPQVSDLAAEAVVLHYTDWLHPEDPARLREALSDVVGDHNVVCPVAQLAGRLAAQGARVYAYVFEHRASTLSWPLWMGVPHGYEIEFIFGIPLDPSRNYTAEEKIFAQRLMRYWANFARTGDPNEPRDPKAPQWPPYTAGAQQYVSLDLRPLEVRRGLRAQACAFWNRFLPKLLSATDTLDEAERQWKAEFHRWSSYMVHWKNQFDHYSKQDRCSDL
Acetylcholinesterase (Electrophorus electricus, UniProt O42275), sequence (O42275 whole entry): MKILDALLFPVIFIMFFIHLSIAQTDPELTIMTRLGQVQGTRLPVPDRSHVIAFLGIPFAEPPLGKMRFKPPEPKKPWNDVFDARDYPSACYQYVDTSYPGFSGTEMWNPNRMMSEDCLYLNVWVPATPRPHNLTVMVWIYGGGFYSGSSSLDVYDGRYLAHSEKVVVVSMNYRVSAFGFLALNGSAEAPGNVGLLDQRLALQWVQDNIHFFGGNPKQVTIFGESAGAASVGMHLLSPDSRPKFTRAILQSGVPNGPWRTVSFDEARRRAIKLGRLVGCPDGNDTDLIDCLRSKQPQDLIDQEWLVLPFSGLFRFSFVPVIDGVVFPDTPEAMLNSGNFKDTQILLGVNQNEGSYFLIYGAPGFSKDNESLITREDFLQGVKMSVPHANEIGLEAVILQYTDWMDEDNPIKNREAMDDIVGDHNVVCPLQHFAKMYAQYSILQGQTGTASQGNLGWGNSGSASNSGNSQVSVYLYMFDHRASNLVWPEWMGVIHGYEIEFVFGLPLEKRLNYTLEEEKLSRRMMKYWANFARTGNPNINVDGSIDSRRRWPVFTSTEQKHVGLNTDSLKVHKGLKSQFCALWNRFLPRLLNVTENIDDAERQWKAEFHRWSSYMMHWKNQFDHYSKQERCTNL
Cholinesterase (Equus caballus, UniProt P81908), sequence (P81908 whole entry): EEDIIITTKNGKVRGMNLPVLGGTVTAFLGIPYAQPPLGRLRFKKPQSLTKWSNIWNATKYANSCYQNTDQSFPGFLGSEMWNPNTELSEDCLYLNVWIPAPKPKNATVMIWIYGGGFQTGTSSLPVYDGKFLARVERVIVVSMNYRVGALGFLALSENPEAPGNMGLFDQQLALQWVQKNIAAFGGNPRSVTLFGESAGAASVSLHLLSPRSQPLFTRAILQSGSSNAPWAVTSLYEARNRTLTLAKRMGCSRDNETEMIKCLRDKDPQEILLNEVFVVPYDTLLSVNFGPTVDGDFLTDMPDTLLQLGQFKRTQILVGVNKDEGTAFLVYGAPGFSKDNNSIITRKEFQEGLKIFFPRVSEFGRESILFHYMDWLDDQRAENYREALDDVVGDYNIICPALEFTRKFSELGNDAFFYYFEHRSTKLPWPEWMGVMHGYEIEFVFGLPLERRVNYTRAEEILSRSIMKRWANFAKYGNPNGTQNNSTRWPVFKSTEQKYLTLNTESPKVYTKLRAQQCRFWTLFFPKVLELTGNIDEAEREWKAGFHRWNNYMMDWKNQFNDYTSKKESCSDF
Amyloid-beta precursor protein (Homo sapiens), sequence (P05067 whole entry): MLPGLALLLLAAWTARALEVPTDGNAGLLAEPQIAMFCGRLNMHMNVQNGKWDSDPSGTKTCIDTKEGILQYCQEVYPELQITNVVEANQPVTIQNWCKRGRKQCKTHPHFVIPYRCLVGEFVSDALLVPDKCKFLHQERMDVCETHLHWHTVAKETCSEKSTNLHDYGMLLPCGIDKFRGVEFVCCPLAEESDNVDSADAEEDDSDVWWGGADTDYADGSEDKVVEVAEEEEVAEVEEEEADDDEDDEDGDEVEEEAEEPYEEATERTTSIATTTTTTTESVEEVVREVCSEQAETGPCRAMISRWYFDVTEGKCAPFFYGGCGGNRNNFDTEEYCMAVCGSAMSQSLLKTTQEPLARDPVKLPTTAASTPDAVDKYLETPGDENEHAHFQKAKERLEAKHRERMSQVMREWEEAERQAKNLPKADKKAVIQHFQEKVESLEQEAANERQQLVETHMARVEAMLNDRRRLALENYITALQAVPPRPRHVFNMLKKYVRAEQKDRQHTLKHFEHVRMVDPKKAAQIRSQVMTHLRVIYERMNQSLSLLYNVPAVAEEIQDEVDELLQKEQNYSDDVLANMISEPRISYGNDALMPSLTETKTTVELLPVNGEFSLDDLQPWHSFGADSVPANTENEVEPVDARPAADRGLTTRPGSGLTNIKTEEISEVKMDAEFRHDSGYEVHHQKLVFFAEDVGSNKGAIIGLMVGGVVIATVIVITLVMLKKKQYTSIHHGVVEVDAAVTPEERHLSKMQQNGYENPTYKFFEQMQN
Cholinesterase (Homo sapiens, UniProt P06276), sequence (P06276 whole entry): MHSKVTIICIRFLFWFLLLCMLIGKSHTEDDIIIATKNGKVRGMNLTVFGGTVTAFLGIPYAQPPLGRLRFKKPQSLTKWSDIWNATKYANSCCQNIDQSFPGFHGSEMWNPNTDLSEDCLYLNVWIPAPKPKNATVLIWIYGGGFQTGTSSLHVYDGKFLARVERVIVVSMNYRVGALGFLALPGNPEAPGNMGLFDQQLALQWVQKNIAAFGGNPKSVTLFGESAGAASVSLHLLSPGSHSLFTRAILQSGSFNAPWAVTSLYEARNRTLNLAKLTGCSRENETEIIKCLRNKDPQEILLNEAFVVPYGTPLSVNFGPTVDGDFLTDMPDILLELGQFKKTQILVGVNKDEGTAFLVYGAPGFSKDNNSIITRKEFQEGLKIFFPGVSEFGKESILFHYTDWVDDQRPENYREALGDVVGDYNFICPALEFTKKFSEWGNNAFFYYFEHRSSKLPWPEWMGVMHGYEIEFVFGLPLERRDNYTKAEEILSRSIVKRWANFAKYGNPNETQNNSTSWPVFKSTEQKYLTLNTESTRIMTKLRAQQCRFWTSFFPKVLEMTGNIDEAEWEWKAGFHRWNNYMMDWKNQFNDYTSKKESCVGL

Regarding `COc1ccc2[nH]cc(CCNC(=O)CN(CCCCC3CCN(Cc4ccccc4)CC3)C(=O)c3cc(=O)c4ccccc4o3)c2c1`, the IC50 (usually the point on the concentration scale where inhibition reaches its midpoint) against Cholinesterase [1] came out at 0.012 µM; against Acetylcholinesterase [3], 2 µM; in [4] it was 3 µM; in [5], 21 µM. The Activity in [2] is 3.04 equiv.
Consider `COc1ccc2c(=O)cc(C(=O)NCCN3CCCCC3)oc2c1`, for which the half-inhibitory concentration (IC50) at Acetylcholinesterase [6] is 0.09 µM.
Take `Cc1ccc(C#CCOc2ccccc2/C=C/c2cc(=O)c3ccccc3o2)cc1`: the inhibition (as a rule, the change of the read-out against control, counted positive when it falls) in series [7] came to 66%. For the same compound, half-maximal inhibition against Acetylcholinesterase [8] (IC50) was put at 3 µM.
Regarding `Cc1ccc(NC(=O)c2c(OCc3ccccc3)ccc3c(=O)c(C)c(C)oc23)cc1`, the Activity in series [9] is 70%. Further, the IC50 in series [10] was 0.1 µM; in [11], 4 µM.
On to `CCOP(=O)(OCC)C(NCCc1ccc(OC)cc1)c1coc2ccccc2c1=O` (stereo unspecified), for which the IC50 at Acetylcholinesterase [12] was found to be 0.1 µM.
Consider `COc1ccc(-c2cc3cc4c(=O)c(C=O)coc4cc3o2)cc1`, for which the half-maximal inhibitory concentration (IC50) on Acetylcholinesterase [13] worked out at 10 µM; in series [14], 15 µM; in series [15] it was 10 µM; at Cholinesterase [16], 5 µM; in series [17], 9.6 µM; in series [18], 18.1 µM. Further, the IC50 in series [19] turned out to be 18 µM.
On to `O=C(OCc1ccc(Cl)cc1)c1coc2ccccc2c1=O`, for which the IC50 in [20] came to 19 µM; in [21] it was 10 µM.
